Experiment [1] addresses T1, serotonin transporter binding site, rat forebrain membranes (Rattus norvegicus, UniProt P31652).
T1 construct: The receptor source was rat forebrain membranes; from tissue; host or cells: rat forebrain membranes
Put plainly: Serotonin Transporter Binding Assay ([3H]-citalopram). Conditions: comparison of Table 2 Ki values. The protocol: Reactions were carried out in 50 mM TRIS-HCl (pH 7.4) containing 120 mM NaCl and 5 mM KCl at 25° C. for 60 minutes. The reaction was terminated by rapid vacuum filtration onto glass fiber filters. Radioactivity trapped in the filters was determined using liquid scintillation spectrometry and compared to control values in order to ascertain any interactions of test compound with the serotonin transporter binding site.

Experiment [2] addresses norepinephrine uptake site (norepinephrine transporter), rat forebrain membranes (Rattus norvegicus, UniProt Q9WTR4). Conditions: comparison of Table 1 Ki values. On the procedure:
Reactions were carried out in 50 mM TRIS-HCl (pH 7.4), containing 300 mM NaCl and 5 mM KCl at 0° C. to 4 ° C for 4 hours. The reaction was terminated by rapid vacuum filtration onto glass fiber filters. Radioactivity trapped in the filters was determined and compared to control values in order to ascertain the interactions of the test compound with the norepinephrine uptake site.

norepinephrine uptake site (norepinephrine transporter), rat forebrain membranes, sequence (Q9WTR4 1-597): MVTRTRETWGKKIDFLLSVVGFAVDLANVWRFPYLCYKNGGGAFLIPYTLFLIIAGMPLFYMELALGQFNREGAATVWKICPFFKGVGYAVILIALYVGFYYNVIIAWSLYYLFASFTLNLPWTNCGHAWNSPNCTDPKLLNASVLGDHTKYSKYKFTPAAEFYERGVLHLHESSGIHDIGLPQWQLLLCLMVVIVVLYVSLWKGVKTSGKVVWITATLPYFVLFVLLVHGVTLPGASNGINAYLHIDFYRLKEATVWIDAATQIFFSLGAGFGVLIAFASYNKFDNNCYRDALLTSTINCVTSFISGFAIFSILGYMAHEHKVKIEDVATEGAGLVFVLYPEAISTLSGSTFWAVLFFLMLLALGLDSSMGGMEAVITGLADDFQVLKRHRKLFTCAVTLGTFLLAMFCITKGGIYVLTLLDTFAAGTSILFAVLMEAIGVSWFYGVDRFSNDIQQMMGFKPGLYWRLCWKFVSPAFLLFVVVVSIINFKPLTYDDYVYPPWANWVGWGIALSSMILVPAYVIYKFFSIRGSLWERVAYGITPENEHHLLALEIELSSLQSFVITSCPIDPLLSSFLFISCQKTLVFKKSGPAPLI
T1 sequence (P31652 whole entry): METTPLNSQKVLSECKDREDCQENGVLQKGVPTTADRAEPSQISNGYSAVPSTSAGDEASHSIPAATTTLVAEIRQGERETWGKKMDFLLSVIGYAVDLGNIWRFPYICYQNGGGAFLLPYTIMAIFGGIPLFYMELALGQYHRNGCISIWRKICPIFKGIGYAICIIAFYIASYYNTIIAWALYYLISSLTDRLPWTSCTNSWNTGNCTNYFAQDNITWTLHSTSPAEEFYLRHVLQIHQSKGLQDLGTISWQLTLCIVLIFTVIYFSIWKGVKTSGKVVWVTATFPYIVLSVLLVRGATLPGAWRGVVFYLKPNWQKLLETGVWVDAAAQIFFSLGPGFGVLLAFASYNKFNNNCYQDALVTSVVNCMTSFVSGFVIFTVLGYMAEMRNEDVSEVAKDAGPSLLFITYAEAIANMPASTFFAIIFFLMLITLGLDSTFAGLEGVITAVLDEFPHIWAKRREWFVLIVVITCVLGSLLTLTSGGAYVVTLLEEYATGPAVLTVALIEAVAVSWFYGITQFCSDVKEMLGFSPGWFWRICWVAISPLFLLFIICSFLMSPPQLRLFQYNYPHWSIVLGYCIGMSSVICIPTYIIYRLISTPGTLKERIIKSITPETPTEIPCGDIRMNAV

In the case of `Cl.Clc1ccc([C@@]23CNC[C@@H]2C3)cc1Cl` (single isomer, unassigned) [(+)-1-(3,4-dichlorophenyl)-3-azabicyclo[3.1.0]hexane hydrochloride], the “affinity for the serotonin uptake site compared with (±)-1-(3,4-dichlorophenyl)-3-azabicyclo[3.1.0]hexane HCl” value in experiment [1] was “significantly greater affinity”. Besides, the “affinity for the norepinephrine uptake site compared with (±)-1-(3,4-dichlorophenyl)-3-azabicyclo[3.1.0]hexane HCl” value in experiment [2] is given as “significantly greater affinity”.

The values above are taken from patent publication US6372919B1 (DOV Pharmaceutical, Inc., priority 2001, dated 2002).
